Data published in publication PMC8209004, “Structural basis of GTPase-mediated mitochondrial ribosome biogenesis and recycling” (Nature Communications, 2021).

Molecular target: T1, GTPBP6 (Homo sapiens, UniProt O43824)
T1 construct: Δ43GTPBP6 (first 43 residues removed); 6xHis-MBP tag cleaved with TEV; expressed in E. coli BL21 (DE3) RIL; modelled residues 94-515
T1 sequence (O43824 44-516): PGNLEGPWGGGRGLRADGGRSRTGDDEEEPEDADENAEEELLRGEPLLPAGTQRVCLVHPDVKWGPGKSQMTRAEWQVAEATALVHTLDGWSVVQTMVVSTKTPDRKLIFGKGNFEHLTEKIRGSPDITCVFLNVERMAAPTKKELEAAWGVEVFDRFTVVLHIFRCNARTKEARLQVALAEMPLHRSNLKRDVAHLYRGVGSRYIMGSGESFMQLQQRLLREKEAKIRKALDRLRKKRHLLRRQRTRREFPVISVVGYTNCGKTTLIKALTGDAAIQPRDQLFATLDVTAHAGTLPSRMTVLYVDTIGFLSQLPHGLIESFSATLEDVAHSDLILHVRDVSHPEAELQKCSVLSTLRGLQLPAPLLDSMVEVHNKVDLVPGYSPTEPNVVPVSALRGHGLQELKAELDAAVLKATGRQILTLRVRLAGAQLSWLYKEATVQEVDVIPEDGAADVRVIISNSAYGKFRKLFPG
Assay: cryo-EM structure of GTPBP6-bound mtLSU
Assay type: binding
Conditions: bound in GTPase domain; 1 mM GTP and 1 mM ATP, pH 7.4, 4 °C; biogenesis intermediate at 2.6 Å and mature mtLSU at 2.7 Å

Nc1nc2c(ncn2[C@@H]2O[C@H](COP(=O)(O)OP(=O)(O)OP(=O)(O)O)[C@@H](O)[C@H]2O)c(=O)[nH]1 [GTP]
cryo-EM structure of GTPBP6-bound mtLSU: shows clear density for a bound GTP molecule
